Values of other authors in US7534771B2, “Tricyclic-nucleoside prodrugs for treating viral infections” (SmithKline Beecham Corporation, priority 2005, dated 2009).

Settings: patients treated at currently recommended doses

For `NC(=O)c1ncn([C@@H]2O[C@H](CO)[C@@H](O)[C@H]2O)n1` [Ribavirin], the “patients with significant hemolysis” value is given as 10-20%.
